Earlier results, collected in patent US20190314382A1, “COMPOUNDS AND PHARMACEUTICAL COMPOSITIONS THEREOF FOR THE TREATMENT OF INFLAMMATORY DISEASES” (Galapagos NV, priority 2016, published 2019).

Test system: MRL/lpr mice
Conditions: cited from earlier work

N#C/C(=C\c1ccc(O)c(O)c1)C(=O)NCc1ccccc1 [tyrphostin AG490]
renal expression of monocyte chemotactic protein (MCP)-1, interferon (IFN)-γ and class II MHC: significantly inhibited | renal infiltration of T cells and macrophages: reduced
